Assay results published in ChEMBL document CHEMBL3808374, “Discovery of 3-Substituted 1H-Indole-2-carboxylic Acid Derivatives as a Novel Class of CysLT1 Selective Antagonists” (ACS Med Chem Lett, 2016).
pIC50: −log10 of the molar value. The source made the active and inactive calls. The rule behind the calls is not given here.

Biological target: T1, Cysteinyl leukotriene receptor 2 (Homo sapiens, UniProt Q9NS75)
T1 sequence (Q9NS75 whole entry): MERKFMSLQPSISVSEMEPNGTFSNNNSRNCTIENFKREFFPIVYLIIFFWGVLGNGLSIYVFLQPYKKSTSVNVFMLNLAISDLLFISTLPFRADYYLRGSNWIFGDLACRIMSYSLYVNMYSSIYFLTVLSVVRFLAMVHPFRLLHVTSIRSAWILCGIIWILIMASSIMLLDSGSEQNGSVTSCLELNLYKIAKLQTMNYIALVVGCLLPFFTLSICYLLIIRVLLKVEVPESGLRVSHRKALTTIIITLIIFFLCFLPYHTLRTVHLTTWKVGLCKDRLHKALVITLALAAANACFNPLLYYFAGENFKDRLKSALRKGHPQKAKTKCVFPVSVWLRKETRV
Experiment: Antagonist activity against CysLT2 receptor (unknown origin) expressed in HEK293 cells assessed as inhibition of LTD4-induced calcium mobilization pre-incubated for 10 mins before LTD4 addition by Fluo-4 AM dye based fluorimetric assay
Type: functional, cell-based
Conditions: not given

SMILES | pIC50
COc1cccc2c(/C=C/C(=O)Nc3cccc(/C=C/c4ccc5ccc(Cl)cc5n4)c3)c(C(=O)O)[nH]c12 | 4.82
O=C(CCc1c(C(=O)O)[nH]c2ccccc12)Nc1cccc(/C=C/c2ccc3ccc(Cl)cc3n2)c1 | 4.30
O=C(O)c1[nH]c2ccccc2c1C(=O)Nc1cccc(/C=C/c2ccc3ccc(Cl)cc3n2)c1 | 4.64
O=C(/C=C/c1c(C(=O)O)[nH]c2cc(Cl)cc(Cl)c12)Oc1ccccc1 | < 4.00
O=C(/C=C/c1c(C(=O)O)[nH]c2ccc(Cl)cc12)Nc1cccc(/C=C/c2ccc3ccc(Cl)cc3n2)c1 | < 4.00
O=C(/C=C/c1c(C(=O)O)[nH]c2ccccc12)OCc1cccc(/C=C/c2ccc3ccc(Cl)cc3n2)c1 | < 4.00
CCCCCOC(=O)/C=C/c1c(C(=O)O)[nH]c2cc(Cl)cc(Cl)c12 | < 4.00
COc1ccc2[nH]c(C(=O)O)c(/C=C/C(=O)Nc3cccc(/C=C/c4ccc5ccc(Cl)cc5n4)c3)c2c1 | 4.34
O=C(/C=C/c1c(C(=O)O)[nH]c2ccccc12)Nc1cccc(/C=C/c2ccc3ccc(Cl)cc3n2)c1 | 4.24
CC(C)CCCOC(=O)/C=C/c1c(C(=O)O)[nH]c2cc(Cl)cc(Cl)c12 | < 4.00
O=C(/C=C/c1c(C(=O)O)[nH]c2ccc(F)cc12)Nc1cccc(/C=C/c2ccc3ccc(Cl)cc3n2)c1 | 4.34
O=C(/C=C/c1c(C(=O)O)[nH]c2cc(Cl)cc(Cl)c12)OC1CCCCC1 | < 4.00
N#CCCCCOC(=O)/C=C/c1c(C(=O)O)[nH]c2cc(Cl)cc(Cl)c12 | < 4.00
O=C(/C=C/c1c(C(=O)O)[nH]c2cc(Cl)cc(Cl)c12)Nc1cccc(/C=C/c2ccc3ccc(Cl)cc3n2)c1 | < 4.00
O=C(/C=C/c1c(C(=O)O)[nH]c2cc(Cl)cc(Cl)c12)OCC1CCCCC1 | < 4.00
O=C(/C=C/c1c(C(=O)O)[nH]c2cc(Cl)ccc12)Nc1cccc(/C=C/c2ccc3ccc(Cl)cc3n2)c1 | 4.06
O=C(/C=C/c1c[nH]c2cc(Cl)cc(Cl)c12)OCc1cccc(/C=C/c2ccc3ccc(Cl)cc3n2)c1 | < 4.00
O=C(/C=C/c1c(C(=O)O)[nH]c2cccc(Cl)c12)Nc1cccc(/C=C/c2ccc3ccc(Cl)cc3n2)c1 | 4.44
O=C(/C=C/c1c(C(=O)O)[nH]c2cc(Cl)cc(Cl)c12)OCCc1ccccc1 | < 4.00
O=C(/C=C/c1c(C(=O)O)[nH]c2cc(Cl)cc(Cl)c12)OCCCCc1ccccc1 | < 4.00
O=C(/C=C/c1c(C(=O)O)[nH]c2cc(F)cc(F)c12)Nc1cccc(/C=C/c2ccc3ccc(Cl)cc3n2)c1 | 4.12
O=C(/C=C/c1c(C(=O)O)[nH]c2cc(Cl)cc(Cl)c12)OCc1ccccc1 | < 4.00
O=C(/C=C/c1c(C(=O)O)[nH]c2c(Cl)cccc12)Nc1cccc(/C=C/c2ccc3ccc(Cl)cc3n2)c1 | < 4.00
O=C(/C=C/c1c(C(=O)O)[nH]c2cc(Cl)cc(Cl)c12)OCc1cccc(/C=C/c2ccc3ccc(Cl)cc3n2)c1 | < 4.00
COc1ccc2c(/C=C/C(=O)Nc3cccc(/C=C/c4ccc5ccc(Cl)cc5n4)c3)c(C(=O)O)[nH]c2c1 | < 4.00
O=C(/C=C/c1c(C(=O)O)[nH]c2cc(Cl)cc(Cl)c12)OCCCc1ccccc1 | < 4.00

Biological target: T2, Cysteinyl leukotriene receptor 1 (Homo sapiens, UniProt Q9Y271)
T2 sequence (Q9Y271 whole entry): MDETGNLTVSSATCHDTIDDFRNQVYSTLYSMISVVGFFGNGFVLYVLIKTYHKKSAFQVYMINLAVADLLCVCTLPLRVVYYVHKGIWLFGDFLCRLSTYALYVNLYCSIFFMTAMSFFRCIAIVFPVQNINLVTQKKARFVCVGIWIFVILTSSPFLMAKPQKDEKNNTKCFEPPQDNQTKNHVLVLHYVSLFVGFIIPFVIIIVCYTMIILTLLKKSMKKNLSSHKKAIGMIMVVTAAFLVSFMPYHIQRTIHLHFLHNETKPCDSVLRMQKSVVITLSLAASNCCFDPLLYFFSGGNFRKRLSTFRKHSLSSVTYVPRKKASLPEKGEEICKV
Experiment: Antagonist activity against CysLT1 receptor (unknown origin) expressed in HEK293 cells assessed as inhibition of LTD4-induced calcium mobilization pre-incubated for 10 mins before LTD4 addition by Fluo-4 AM dye based fluorimetric assay
Type: functional, cell-based
Conditions: not given

SMILES | pIC50
COc1cccc2c(/C=C/C(=O)Nc3cccc(/C=C/c4ccc5ccc(Cl)cc5n4)c3)c(C(=O)O)[nH]c12 | 8.23
O=C(CCc1c(C(=O)O)[nH]c2ccccc12)Nc1cccc(/C=C/c2ccc3ccc(Cl)cc3n2)c1 | 7.24
O=C(O)c1[nH]c2ccccc2c1C(=O)Nc1cccc(/C=C/c2ccc3ccc(Cl)cc3n2)c1 | 7.46
O=C(/C=C/c1c(C(=O)O)[nH]c2cc(Cl)cc(Cl)c12)Oc1ccccc1 | < 4.00
O=C(/C=C/c1c(C(=O)O)[nH]c2ccc(Cl)cc12)Nc1cccc(/C=C/c2ccc3ccc(Cl)cc3n2)c1 | 7.77
O=C(/C=C/c1c(C(=O)O)[nH]c2ccccc12)OCc1cccc(/C=C/c2ccc3ccc(Cl)cc3n2)c1 | 6.92
CCCCCOC(=O)/C=C/c1c(C(=O)O)[nH]c2cc(Cl)cc(Cl)c12 | < 4.00
COc1ccc2[nH]c(C(=O)O)c(/C=C/C(=O)Nc3cccc(/C=C/c4ccc5ccc(Cl)cc5n4)c3)c2c1 | 7.60
O=C(/C=C/c1c(C(=O)O)[nH]c2ccccc12)Nc1cccc(/C=C/c2ccc3ccc(Cl)cc3n2)c1 | 8.05
CC(C)CCCOC(=O)/C=C/c1c(C(=O)O)[nH]c2cc(Cl)cc(Cl)c12 | < 4.00
O=C(/C=C/c1c(C(=O)O)[nH]c2ccc(F)cc12)Nc1cccc(/C=C/c2ccc3ccc(Cl)cc3n2)c1 | 8.11
O=C(/C=C/c1c(C(=O)O)[nH]c2cc(Cl)cc(Cl)c12)OC1CCCCC1 | < 4.00
N#CCCCCOC(=O)/C=C/c1c(C(=O)O)[nH]c2cc(Cl)cc(Cl)c12 | < 4.00
O=C(/C=C/c1c(C(=O)O)[nH]c2cc(Cl)cc(Cl)c12)Nc1cccc(/C=C/c2ccc3ccc(Cl)cc3n2)c1 | 6.54
O=C(/C=C/c1c(C(=O)O)[nH]c2cc(Cl)cc(Cl)c12)OCC1CCCCC1 | < 4.00
O=C(/C=C/c1c(C(=O)O)[nH]c2cc(Cl)ccc12)Nc1cccc(/C=C/c2ccc3ccc(Cl)cc3n2)c1 | 7.66
O=C(/C=C/c1c[nH]c2cc(Cl)cc(Cl)c12)OCc1cccc(/C=C/c2ccc3ccc(Cl)cc3n2)c1 | 4.51
O=C(/C=C/c1c(C(=O)O)[nH]c2cccc(Cl)c12)Nc1cccc(/C=C/c2ccc3ccc(Cl)cc3n2)c1 | 7.17
O=C(/C=C/c1c(C(=O)O)[nH]c2cc(Cl)cc(Cl)c12)OCCc1ccccc1 | < 4.00
O=C(/C=C/c1c(C(=O)O)[nH]c2cc(Cl)cc(Cl)c12)OCCCCc1ccccc1 | < 4.00
O=C(/C=C/c1c(C(=O)O)[nH]c2cc(F)cc(F)c12)Nc1cccc(/C=C/c2ccc3ccc(Cl)cc3n2)c1 | 7.42
O=C(/C=C/c1c(C(=O)O)[nH]c2cc(Cl)cc(Cl)c12)OCc1ccccc1 | < 4.00
O=C(/C=C/c1c(C(=O)O)[nH]c2c(Cl)cccc12)Nc1cccc(/C=C/c2ccc3ccc(Cl)cc3n2)c1 | 7.80
O=C(/C=C/c1c(C(=O)O)[nH]c2cc(Cl)cc(Cl)c12)OCc1cccc(/C=C/c2ccc3ccc(Cl)cc3n2)c1 | 6.18
O=C(O)c1ccc(OCCCc2ccc(OCCCCOc3ccccc3)cc2)c(C(=O)NC2CCCC(C(=O)O)C2)c1 (stereo unspecified) | < 5.60
COc1ccc2c(/C=C/C(=O)Nc3cccc(/C=C/c4ccc5ccc(Cl)cc5n4)c3)c(C(=O)O)[nH]c2c1 | 7.92
O=C(/C=C/c1c(C(=O)O)[nH]c2cc(Cl)cc(Cl)c12)OCCCc1ccccc1 | < 4.00

Biological target: T3, Cysteinyl leukotriene receptor 1 (Mus musculus) (UniProt Q99JA4)
T3 sequence (whole entry): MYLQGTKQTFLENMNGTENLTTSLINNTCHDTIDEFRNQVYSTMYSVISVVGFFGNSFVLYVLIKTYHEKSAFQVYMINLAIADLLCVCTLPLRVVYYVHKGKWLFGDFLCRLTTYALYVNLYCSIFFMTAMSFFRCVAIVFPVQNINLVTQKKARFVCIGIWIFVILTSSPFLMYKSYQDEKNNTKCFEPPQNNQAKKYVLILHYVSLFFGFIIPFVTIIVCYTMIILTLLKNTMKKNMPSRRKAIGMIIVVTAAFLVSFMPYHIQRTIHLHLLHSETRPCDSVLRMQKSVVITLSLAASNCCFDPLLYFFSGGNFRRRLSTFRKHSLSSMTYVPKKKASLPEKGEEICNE
Experiment: (§1) Antagonist activity at LTD4 receptor in splenocytes isolated from MOG(35 to 55 residues) containing CFA immunized and pertussis toxin-induced C57BL/6 mouse experimental autoimmune encephalomyelitis model assessed as inhibition of LTD4-induced leukocyte chemotaxis at 100 nM after 1.5 hrs by flow cytometric analysis
Type: cell-based
Conditions: not given

SMILES | inhibition
COc1cccc2c(/C=C/C(=O)Nc3cccc(/C=C/c4ccc5ccc(Cl)cc5n4)c3)c(C(=O)O)[nH]c12 | > 50%
O=C(/C=C/c1c(C(=O)O)[nH]c2ccccc12)Nc1cccc(/C=C/c2ccc3ccc(Cl)cc3n2)c1 | > 50%
O=C(/C=C/c1c(C(=O)O)[nH]c2ccc(F)cc12)Nc1cccc(/C=C/c2ccc3ccc(Cl)cc3n2)c1 | > 50%
COc1ccc2c(/C=C/C(=O)Nc3cccc(/C=C/c4ccc5ccc(Cl)cc5n4)c3)c(C(=O)O)[nH]c2c1 | > 50%

Biological target: T3, Cysteinyl leukotriene receptor 1 (Mus musculus)
Experiment: as §1, with “10” for “100”
Type: cell-based
Conditions: not given

SMILES | inhibition
COc1cccc2c(/C=C/C(=O)Nc3cccc(/C=C/c4ccc5ccc(Cl)cc5n4)c3)c(C(=O)O)[nH]c12 | Active
O=C(/C=C/c1c(C(=O)O)[nH]c2ccc(F)cc12)Nc1cccc(/C=C/c2ccc3ccc(Cl)cc3n2)c1 | Active

Biological target: T3, Cysteinyl leukotriene receptor 1 (Mus musculus)
Conditions: C57BL/6, at 1 µM

SMILES | inhibition
CC(C)(O)c1ccccc1CC[C@@H](SCC1(CC(=O)O)CC1)c1cccc(/C=C/c2ccc3ccc(Cl)cc3n2)c1 | 50%
O=C(/C=C/c1c(C(=O)O)[nH]c2cc(Cl)cc(Cl)c12)OCc1cccc(/C=C/c2ccc3ccc(Cl)cc3n2)c1 | 50%
